These are literature values, as cited in patent US20230106731A1, “INHIBITORS OF MUTANT FAMILY TYROSINE-KINASES” (Spectrum Pharmaceuticals, Inc., priority 2017, published 2023).

Molecules are shown by their SMILES.

For one data set, the system named is EGFR/HER2 exon 20 mutant. As to conditions: EGFR/HER2 exon 20 mutant patients.
Data set [1] concerns EGFR exon 20 driven NSCLC.

Turning to `CS(=O)(=O)CCNCc1ccc(-c2ccc3ncnc(Nc4ccc(OCc5cccc(F)c5)c(Cl)c4)c3c2)o1` [lapatinib], the activity in patients entry with EGFR/HER2 exon 20 mutant is recorded as “limited activity”.
Turning to `CCOc1cc2ncc(C#N)c(Nc3ccc(OCc4ccccn4)c(Cl)c3)c2cc1NC(=O)/C=C/CN(C)C` [neratinib], the activity in patients entry with EGFR/HER2 exon 20 mutant is “limited activity”.
As to `C=CC(=O)Nc1cc(Nc2nccc(-c3cn(C)c4ccccc34)n2)c(OC)cc1N(C)CCN(C)C` [osimertinib], the “activity in patient derived xenograft model” value in data set [1] is “minimal activity”.
